From PubChem BioAssay AID1198 (NMMLSC, 2008)

Test system: LNCaP side scatter shift, flow cytometry, 4 days
Test: activators of LNCaP prostate cell differentiation, dose response, flow cytometry, side scatter granularity (AID 1198)

Compound	EC50
CCN1CCN(c2ncc(C(=O)Nc3cc(Cl)c(OC)cc3OC)c3ccccc23)CC1	5.59 µM
Cc1ccc2c(c1)-c1c(cnn1CC(=O)Nc1ccccc1N1CCN(C)CC1)CO2	8.06 µM
